Data reported in PubChem BioAssay AID228 (DTP/NCI, 2004).
Where “and” joins values, the source holds several entries; their conditions need not be identical. Identical values can stand only once. Records with an inconclusive call do not appear.

Test system: BDF1 mice, Friend leukemia sc, tumor weight T/C
Assay: NCI In Vivo Anticancer Drug Screen. Data for tumor model Friend Virus Leukemia (Solid) (subcutaneous) in B6D2F1 (BDF1) mice
Details: endpoint: mean tumor weight, higher = larger tumour
Procedure: The antitumor activity of compounds was measured in mice bearing transplantable tumors. Survival or tumor size were measured and the results are expressed as the measurement made in the treated group (T) divided by the measurement made in the vehicle treated control group (C). The tumor model used in this assay is Friend Virus Leukemia (Solid) (subcutaneous) in B6D2F1 (BDF1) mice

[1] = dose: 31.0 mg/kg/injection, schedule: Q01DX011 (ip), vehicle: carboxymethylcellulose (CMC)
[2] = dose: 125.0 mg/kg/injection, schedule: Q01DX011 (ip), vehicle: carboxymethylcellulose (CMC)
[3] = dose: 9.0 mg/kg/injection, schedule: Q01DX011 (ip), vehicle: carboxymethylcellulose (CMC)
[4] = dose: 18.0 mg/kg/injection, schedule: Q01DX011 (ip), vehicle: carboxymethylcellulose (CMC)
[5] = dose: 50.0 mg/kg/injection, schedule: Q01DX011 (ip), vehicle: saline
[6] = dose: 250.0 mg/kg/injection, schedule: Q01DX011 (ip), vehicle: carboxymethylcellulose (CMC)

## Nc1ccc(OC(=O)Oc2ccc(N)cc2)cc1
[1]
  T/C: 105 % of control
dose: 62.0 mg/kg/injection, schedule: Q01DX011 (ip), vehicle: carboxymethylcellulose (CMC)
  T/C: 68 % of control
[2]
  T/C: 28 % of control

## Nc1nc(N)c2[nH]cnc2n1
dose: 11.0 mg/kg/injection, schedule: Q01DX011 (ip), vehicle: carboxymethylcellulose (CMC)
  T/C: 109 % of control
dose: 22.0 mg/kg/injection, schedule: Q01DX011 (ip), vehicle: carboxymethylcellulose (CMC)
  T/C: 92 % of control
dose: 44.0 mg/kg/injection, schedule: Q01DX011 (ip), vehicle: carboxymethylcellulose (CMC)
  T/C: 87 % of control
dose: 88.0 mg/kg/injection, schedule: Q01DX011 (ip), vehicle: carboxymethylcellulose (CMC)
  T/C: 66 % of control and 85 % of control

## COS(C)(=O)=O
[3]
  T/C: 167 % of control
dose: 9.37 mg/kg/injection, schedule: Q01DX011 (ip), vehicle: saline
  T/C: 116 % of control
[4]
  T/C: 98 % of control
dose: 18.75 mg/kg/injection, schedule: Q01DX011 (ip), vehicle: saline
  T/C: 114 % of control
dose: 37.5 mg/kg/injection, schedule: Q01DX011 (ip), vehicle: saline
  T/C: 85 % of control
dose: 75.0 mg/kg/injection, schedule: Q01DX011 (ip), vehicle: saline
  T/C: 76 % of control
dose: 100.0 mg/kg/injection, schedule: Q01DX011 (ip), vehicle: saline
  T/C: 69 % of control

## C=CC(CN1CC1)OC(C)=O (stereo not given)
dose: 1.2 mg/kg/injection, schedule: Q01DX011 (ip), vehicle: carboxymethylcellulose (CMC)
  T/C: 70 % of control
dose: 2.4 mg/kg/injection, schedule: Q01DX011 (ip), vehicle: carboxymethylcellulose (CMC)
  T/C: 89 % of control
dose: 2.5 mg/kg/injection, schedule: Q01DX011 (ip), vehicle: saline
  T/C: 50 % of control
dose: 4.8 mg/kg/injection, schedule: Q01DX011 (ip), vehicle: carboxymethylcellulose (CMC)
  T/C: 36 % of control
dose: 5.0 mg/kg/injection, schedule: Q01DX011 (ip), vehicle: saline
  T/C: 31 % of control
dose: 7.5 mg/kg/injection, schedule: Q01DX011 (ip), vehicle: saline
  T/C: 26 % of control
dose: 9.9 mg/kg/injection, schedule: Q01DX011 (ip), vehicle: saline
  T/C: 3 % of control

## CCCCNc1ncnc2c1cnn2C
dose: 4.0 mg/kg/injection, schedule: Q01DX011 (ip), vehicle: saline
  T/C: 150 % of control
dose: 16.0 mg/kg/injection, schedule: Q01DX011 (ip), vehicle: saline
  T/C: 117 % of control
dose: 31.0 mg/kg/injection, schedule: Q01DX011 (ip), vehicle: saline
  T/C: 84 % of control

## CC(/C=N/N=C(N)N)=N\N=C(N)N
dose: 12.5 mg/kg/injection, schedule: Q01DX011 (ip), vehicle: saline
  T/C: 155 % of control
dose: 25.0 mg/kg/injection, schedule: Q01DX011 (ip), vehicle: saline
  T/C: 190 % of control
[5]
  T/C: 169 % of control

## CCN(CC)CCNc1ccc([N+](=O)[O-])c2sc3ccccc3c(=O)c12
dose: 20.0 mg/kg/injection, schedule: Q01DX011 (ip), vehicle: saline
  T/C: 87 % of control
dose: 40.0 mg/kg/injection, schedule: Q01DX011 (ip), vehicle: saline
  T/C: 110 % of control

## NNC(=O)NC(=O)NN
dose: 9.62 mg/kg/injection, schedule: Q01DX011 (ip), vehicle: carboxymethylcellulose (CMC)
  T/C: 90 % of control
dose: 19.25 mg/kg/injection, schedule: Q01DX011 (ip), vehicle: carboxymethylcellulose (CMC)
  T/C: 100 % of control
dose: 77.0 mg/kg/injection, schedule: Q01DX011 (ip), vehicle: carboxymethylcellulose (CMC)
  T/C: 105 % of control

## N#CCSc1ncnc2nc[nH]c12
dose: 15.5 mg/kg/injection, schedule: Q01DX011 (ip), vehicle: carboxymethylcellulose (CMC)
  T/C: 91 % of control
[1]
  T/C: 32 % of control
dose: 62.5 mg/kg/injection, schedule: Q01DX011 (ip), vehicle: carboxymethylcellulose (CMC)
  T/C: 18 % of control

## NC(C=O)C(O)C(O)C(O)CO (stereo not given)
[2]
  T/C: 102 % of control
[6]
  T/C: 168 % of control
dose: 1000.0 mg/kg/injection, schedule: Q01DX011 (ip), vehicle: carboxymethylcellulose (CMC)
  T/C: 115 % of control

## Nc1nc(N)c(N=O)c(Nc2ccc(Cl)c(Cl)c2)n1
dose: 3.75 mg/kg/injection, schedule: Q01DX011 (ip), vehicle: carboxymethylcellulose (CMC)
  T/C: 153 % of control
dose: 7.5 mg/kg/injection, schedule: Q01DX011 (ip), vehicle: carboxymethylcellulose (CMC)
  T/C: 69 % of control
dose: 15.0 mg/kg/injection, schedule: Q01DX011 (ip), vehicle: carboxymethylcellulose (CMC)
  T/C: 109 % of control
dose: 30.0 mg/kg/injection, schedule: Q01DX011 (ip), vehicle: carboxymethylcellulose (CMC)
  T/C: 91 % of control

## NC1(C(=O)O)CCCC1
dose: 4.5 mg/kg/injection, schedule: Q01DX011 (ip), vehicle: carboxymethylcellulose (CMC)
  T/C: 95 % of control
[3]
  T/C: 89 % of control
[4]
  T/C: 63 % of control
dose: 36.0 mg/kg/injection, schedule: Q01DX011 (ip), vehicle: carboxymethylcellulose (CMC)
  T/C: 53 % of control

## NC(N)=N/N=C/C=N/N=C(N)N
[5]
  T/C: 189 % of control

## CCC1/C=C/C=C/CC(C)C(O)C(C)(O)C(=O)C(C)C(O)C(C)C(=O)C(C)C(O)C(C)/C=C/C(=O)OC2C(C)C(CC1)OC1(OC(CC(C)O)C(C)CC1=O)C2C (stereo not given) (tested in a mixture with another compound)
dose: 1.56 mg/kg/injection, schedule: Q01DX011 (ip), vehicle: carboxymethylcellulose (CMC)
  T/C: 54 % of control
dose: 3.12 mg/kg/injection, schedule: Q01DX011 (ip), vehicle: carboxymethylcellulose (CMC)
  T/C: 64 % of control
dose: 6.25 mg/kg/injection, schedule: Q01DX011 (ip), vehicle: carboxymethylcellulose (CMC)
  T/C: 46 % of control

## CCCNC(=NC)c1ccc(NC(=O)c2ccc(C(=O)Nc3ccc(C(=NC)NCCC)cc3)cc2)cc1
dose: 3.0 mg/kg/injection, schedule: Q01DX011 (ip), vehicle: carboxymethylcellulose (CMC)
  T/C: 80 % of control
dose: 6.0 mg/kg/injection, schedule: Q01DX011 (ip), vehicle: carboxymethylcellulose (CMC)
  T/C: 65 % of control

## CC(=O)[C@H]1CC[C@H]2[C@@H]3CCC4=CC(=O)CC[C@]4(C)[C@H]3CC[C@]12C
dose: 250.0 mg/kg/injection, schedule: Q01DX011 (sc), vehicle: steriod suspending solution
  T/C: 228 % of control
dose: 500.0 mg/kg/injection, schedule: Q01DX011 (sc), vehicle: steriod suspending solution
  T/C: 165 % of control
dose: 750.0 mg/kg/injection, schedule: Q01DX011 (sc), vehicle: steriod suspending solution
  T/C: 212 % of control
dose: 1000.0 mg/kg/injection, schedule: Q01DX011 (sc), vehicle: steriod suspending solution
  T/C: 291 % of control

## COc1cc(OC)c(OC)cc1/C=C\c1ccnc2ccccc12
dose: 63.0 mg/kg/injection, schedule: Q01DX011 (ip), vehicle: carboxymethylcellulose (CMC)
  T/C: 78 % of control
[2]
  T/C: 60 % of control
[6]
  T/C: 64 % of control
dose: 500.0 mg/kg/injection, schedule: Q01DX011 (ip), vehicle: carboxymethylcellulose (CMC)
  T/C: 52 % of control

## CN(C)C1C(=O)C(C(N)=O)=C(O)C2(O)C(=O)C3=C(O)c4c(O)cccc4C(C)(O)C3C(O)C12 (stereo not given)
dose: 19.5 mg/kg/injection, schedule: Q01DX011 (ip), vehicle: carboxymethylcellulose (CMC)
  T/C: 94 % of control
dose: 78.0 mg/kg/injection, schedule: Q01DX011 (ip), vehicle: carboxymethylcellulose (CMC)
  T/C: 115 % of control
dose: 156.0 mg/kg/injection, schedule: Q01DX011 (ip), vehicle: carboxymethylcellulose (CMC)
  T/C: 95 % of control

## CC(=O)[C@H]1CC[C@H]2[C@@H]3C[C@H](C)C4=CC(=O)CC[C@]4(C)[C@@]3(F)[C@@H](O)C[C@]12C
dose: 6.0 mg/kg/injection, schedule: Q01DX011 (sc), vehicle: steriod suspending solution
  T/C: 163 % of control
dose: 8.0 mg/kg/injection, schedule: Q01DX011 (sc), vehicle: steriod suspending solution
  T/C: 162 % of control
dose: 12.0 mg/kg/injection, schedule: Q01DX011 (sc), vehicle: steriod suspending solution
  T/C: 151 % of control
dose: 16.0 mg/kg/injection, schedule: Q01DX011 (sc), vehicle: steriod suspending solution
  T/C: 80 % of control
dose: 50.0 mg/kg/injection, schedule: Q01DX011 (sc), vehicle: steriod suspending solution
  T/C: 66 % of control and 43 % of control
dose: 100.0 mg/kg/injection, schedule: Q01DX011 (sc), vehicle: steriod suspending solution
  T/C: 22 % of control and 47 % of control
dose: 200.0 mg/kg/injection, schedule: Q01DX011 (sc), vehicle: steriod suspending solution
  T/C: 46 % of control
